Experimental data: US11369114B2, “Antimicrobial coatings comprising organosilane homopolymers” (ALLIED BIOSCIENCE, INC., priority 2014, dated 2022)

Tested on: E. coli
Assay: Efficacy of treated coupons after inoculation with E. coli (Examples II-V)
Format: cell-based
Conditions: Examples IV/V: organosilane with triethanolamine coating first, Titanium Oxide Moieties (TiO2) disposed over it
Description: This Example II disposes the components of the composition onto a target surface in a reverse order. More specifically, Applicants first dispose the Titanium-Oxide Moieties onto the target surface, the aqueous portion of the first spray deposition is evaporated, and then dispose Octadecylaminodimethyltrihydroxysilylpropyl Ammonium Chloride 6 over the earlier-disposed Titanium-Oxide Moieties.
The test coupons of this Example II were prepared and using the Procedure recited immediately hereinbelow. In various embodiments, the treated coupons were stored for at least four (4) weeks prior to inoculation with various organisms.
This Example III simultaneously disposes a mixture of the organosilane and the Titanium-Oxide Moieties onto the surface of a plurality of test coupons. More specifically in this Example III, the simultaneously dispose the Titanium-Oxide Moieties and Octadecylaminodimethyltrihydroxysilylpropyl Ammonium Chloride 6 onto a surface of each test coupon.
The test coupons of this Example III were prepared and using the Procedure recited immediately hereinbelow. In various embodiments, the treated coupons were stored for at least four (4) weeks prior to inoculation with various organisms.
The test coupons of this Example IV were prepared and using the Procedure recited immediately hereinbelow. […]

SMILES	efficacy of treated coupons (self-decontaminating surface)
NCCC[Si](O)(O)O [3-aminopropyltrihydroxysilane]	generates a self-decontaminating surface
O[Si](O)(O)CCCCl [3-chloropropyltrihydroxysilane]	generates a self-decontaminating surface
